From patent US20020094524A1, “Compositions and methods for inhibiting HIV infection” (priority 2000, published 2002)

Tests used:
[1] = test system: HIV LTR promoter; experiment: HIV LTR-driven CAT activity assay in U38 cells; assay type: cell-based
Text: ACH-2 and U38 cell lines (25, 26) were obtained from the NIH AIDS Reagent Program. DNA extracted from ACH-2 cells was used as a positive standard for HIV DNA PCR as previously reported (27). The U38 cell line contains stably integrated, silent copies of the HIV LTR (long terminal repeat) promoter linked to a CAT (chloramphenicol acetyltransferase) gene and was used to study the effect of SP and/or CP-96,345 and R-113281 on the activation of HIV LTR promoter.
Chloramphenicol acetyltransferase (CAT) activity assay:U38 cells (2×10^6 cells) were incubated with different concentrations of SP and/or CP-96,345 or R-113281 for 48 h. Untreated U38 cells were used as a background control. Cellular proteins were extracted using 1× Reporter Lysis Bufffer (Promega Corp., Madison, Wis.). The lysates were incubated with a mixture containing 0.15 μCi of ^14C-labeled chloramphenicol (DuPont Inc., Boston, Mass.) and 200 μg/ml of n-Butyryl CoA (Promega Corp., Madison, Wis.) in a total volume of 125 μl at 37° C. for 3 h. The acetylated forms of chloramphenicol were extracted with xylene (Aldrich Chemical Company, Milwaukee, Wis.). CAT activity of each sample was quantified using a liquid-scintillation counter (Packard Instrument Company, Downers Grove, Ill.). The results were expressed as the ratio of CAT activity (CPM) of the SP and/or CP-96,345-treated or R-113281-treated U38 to that of the background control.

[2] = test system: X4 strain (UG024); experiment: HIV RT activity in MDM infected with X4 strain; assay type: cell-based
Protocol: Based upon their differential use of the major HIV co-receptors, HIV isolates have been referred to as R5, X4 or R5X4 strains, respectively (29). The M-tropic (macrophage-tropic) R5 prototype strains (Bal and ADA), dual tropic strain (89.6) and X4 primary isolate (UG024), were obtained from the NIH AIDS Reagent Program. Primary M-tropic isolates (BL-6 and CSF-6) were isolated from the blood and cerebrospinal fluid cells, respectively, of a subject with AIDS.
The cells were also incubated with SP and/or anti-SP antibody. In this case, SP was incubated with (1:1000 dilution in 10% FCS DMEM) or without anti-SP antibody at room temperature for 10 min and then the mixture was added to the cell cultures for 2 h. When the cells were treated with the combination of CP-96,345 and SP, or CP-96,345, SP and anti-SP antibody, CP-96,345 was incubated with the cell culture for 10 min and then SP was added to the MDM or CP-96,345, SP and anti-SP (1:1000 in 10% FCS DMEM) were incubated for 10 min at room temperature and the mixture was incubated with the MDM for 2 h before infection with HIV. Untreated MDM served as controls. The cells were treated prior to, during, and throughout the infection. […]

[3] = test system: CCR5 mRNA; experiment: CCR5 mRNA expression in MDM (RT-PCR); assay type: cell-based, human; conditions: for relative CCR5 mRNA level (real-time RT-PCR): CP-96,345 10^−7 to 10^−6 M or R-113281 10^−8 to 10^−6 M, 4 hours (FIG. 15A)
Protocol: Total RNA was isolated from human peripheral blood MDM (10^6 cells) using Tri-Reagent (Molecular Research Center, Cincinnati, Ohio) as we previously reported (16).
Reverse transcription: Total RNA (1 μg) was reverse transcribed using Reverse Transcription System (Promega, Madison, Wis.) with the specific primers (antisense) for HIV gag (5′-[…]-[…]-3′; SEQ ID NO: 1) (27) or CCR5 (5′-[…]-3′; SEQ ID NO: 2) (32) for 1 h at 42° C. RT reactions was terminated by incubating the reaction mixture at 99° C. for 5 min and then kept at 4° C. The resulting cDNA was used as a template for PCR amplification or real time PCR quantification.
Polymerase chain reaction (PCR) analysis: PCR amplification of CCR5 and HIV gag cDNA was performed with one tenth of the cDNA for 35 cycles (CCR5) (32) or 40 cycles (gag) (27) using AmpliTaq Gold (Perkin Elmer-Cetus, Foster City, Calif.) in a GeneAmp PCR System 2400 (Perkin Elmer-Cetus). β-Actin was used as a control to monitor the amount and integrity of RNA in each sample (Clontech, Palo Alto, Calif.). Real time PCR was performed with one tenth of cDNA using ABI Prism 7700 Sequence Detection System (Perkin Elmer). The reaction mixture contained 0.25 mM of dNTPs, AmpliTaq Gold (1.5 U), 5 mM of MgCl2, 50 pmole of each of the two primers (SK38: 5′-[…]-3′ (SEQ ID NO: 3); SK39: 5+-[…]-3′; SEQ ID NO: 4), 20 pmole of the molecular beacon probe (SK19: 5′-[…]-3′; SEQ ID NO: 5) labeled with FAM (a fluorophore) at its 5′ end and DABCYL (a quencher) at the 3′ end. The cycle conditions were 95° C. 10 min followed by 40 cycles of 95° C. 15 sec and 60° C. 1 min. The known amounts of HIV DNA isolated from ACH-2 cells were used as standard controls. All standards and samples were run in duplicates. HIV gag, CCR5, β-Actin primer pairs and the probe (SK19) were synthesized by Integrated DNA Technologies, Inc. (Coralville, Iowa).

| SMILES | effect on SP activation of HIV LTR-driven CAT activity ([1]; SP (10^−8M), R-113281 10^−6M, 48 hours (FIG. 16)) | replication of X4 strain (RT activity) ([2]; R-113281 10^−6 M, 8 days after infection (FIG. 14)) | relative CCR5 mRNA level (real-time RT-PCR) [3] | effect on SP activation of HIV LTR-driven CAT activity ([1]; SP 10^−8M, CP-96,345 10^−6M, 48 h (FIG. 7)) | replication of X4 strain UG024 (RT activity) ([2]; CP-96,345 10^−7M, 8 days after infection (FIG. 6)) | CCR5 mRNA in MDM (RT-PCR) ([3]; 10^−8 to 10^−6M, 3 h (FIG. 9)) |
| --- | --- | --- | --- | --- | --- | --- |
| COc1cc(C(=O)N2CCO[C@](CCN3CCC4(CC3)c3ccccc3C[S@+]4[O-])(c3ccc(Cl)c(Cl)c3)C2)cc(OC)c1OC.Cl [R-113281] | abrogated | not affected | significantly down-regulated |  |  |  |
| COc1ccccc1CN[C@H]1C2CCN(CC2)[C@H]1C(c1ccccc1)c1ccccc1 [CP-96,345, 2S, 3S)-cis-2-(diphenylmethyl)-N-[(2-methoxyphenyl)-methyl]-1-azabicyclo[[2.2.2]octan-3-amine] |  |  | significantly down-regulated | abrogated | not affected | down-regulated |
